This is an account of results in ChEMBL document CHEMBL3244130, “A manual method for applying the Hansch approach to drug design” (J Med Chem, 1977).

Tested on in the first assay: not listed separately
Description: Inhibition of alcohol dehydrogenase (unknown origin) assessed as dissociation constant for the complex of enzyme and DPNH. The class given is protein assay. The conditions noted are these: Homo sapiens.
`NC(=O)c1ccccc1`: the log K is -2.72.
For `Cc1ccc(C(N)=O)cc1`, the log K is -1.78.
Still for that read-out and setting: the value for `NC(=O)c1ccc(Cl)cc1` was -1.93; that for `COc1ccc(C(N)=O)cc1` was -2.2.
Same read-out and setting: the value for `CC(C)c1ccc(C(N)=O)cc1` was -1.7.

Another assay relates to Escherichia coli. Nature of the assay: Antibacterial activity against Escherichia coli. The format is functional.
Details: not given
For `CCc1ccc(C(=O)NS(=O)(=O)c2ccc(N)cc2)cc1`, the “log(1/MIC)” value is given as 5.62.
Same read-out and setting: the value for `Nc1ccc(S(=O)(=O)NC(=O)c2ccc([N+](=O)[O-])cc2)cc1` was 4.5.
Still for that read-out and setting: the value for `COc1ccc(C(=O)NS(=O)(=O)c2ccc(N)cc2)cc1C` was 5.25; that for `Cc1cccc(C(=O)NS(=O)(=O)c2ccc(N)cc2)c1` was 5.4; that for `Nc1ccc(S(=O)(=O)NC(=O)c2cccc(C(F)(F)F)c2)cc1` was 4.65.
Still for that read-out and setting: the value for `CCCc1ccc(C(=O)NS(=O)(=O)c2ccc(N)cc2)cc1` was 5.18; that for `COc1ccc(C(=O)NS(=O)(=O)c2ccc(N)cc2)cc1` was 5.4; that for `Nc1ccc(S(=O)(=O)NC(=O)c2ccc(Cl)cc2)cc1` was 5.1.
Regarding `N#Cc1ccc(C(=O)NS(=O)(=O)c2ccc(N)cc2)cc1`, the “log(1/MIC)” value is reported as 4.05.
On the same count and under the same terms, the value for `Nc1ccc(S(=O)(=O)NC(=O)c2ccccc2)cc1` [SULFABENZAMIDE] was 5.25; that for `CC(C)c1ccc(C(=O)NS(=O)(=O)c2ccc(N)cc2)cc1` was 5.4; that for `Cc1ccc(C(=O)NS(=O)(=O)c2ccc(N)cc2)cc1` was 5.4.

Tested on in a further assay: not listed separately
Nature of the assay: Inhibition of carbonic anhydrase (unknown origin). As to conditions: Homo sapiens.
Turning to `NS(=O)(=O)c1ccc(Cl)c(Cl)c1`, the log1/Ki came to 1.4.
Still for that read-out and setting: the value for `NS(=O)(=O)c1ccccc1` was 0.22.
Still for that read-out and setting: in the case of `NS(=O)(=O)c1ccc(Cl)cc1` it was 0.72; in that of `Cc1ccc(S(N)(=O)=O)cc1`, 0.42.
Still for that read-out and setting: the value for `COc1ccc(S(N)(=O)=O)cc1` was 0.35.
With `NS(=O)(=O)c1ccc([N+](=O)[O-])c(C(F)(F)F)c1`, the log1/Ki came out at 1.85.

Tested on in the next assay: not listed separately
Nature of the assay: Uncoupling activity of oxidative phosphorylation in rat liver mitochondria. The class given is functional.
Details: not given
`CC(C)c1ccc(C2C(=O)c3ccccc3C2=O)cc1` registered a log(1/C50) of 4.87.
Still for that read-out and setting: the value for `O=C1c2ccccc2C(=O)C1c1ccc(Cl)cc1` was 4.2; that for `O=C1c2ccccc2C(=O)C1c1ccccc1` was 3.74.
Still for that read-out and setting: the value for `COc1ccc(C2C(=O)c3ccccc3C2=O)cc1` was 3.75.
Still for that read-out and setting: in the case of `CC(C)(C)c1ccc(C2C(=O)c3ccccc3C2=O)cc1` it was 5.03; in that of `Cc1ccc(C2C(=O)c3ccccc3C2=O)cc1`, 4.1.

The test system of a further assay is Plasma. Description: Fibrinolytic activity in human plasma assessed as dissolution of standard clot measured with in 24 hrs. The format is functional.
Details: not given
With `O=C(O)[C@H]1C[C@@H]1C#Cc1ccccc1`, the “log(1/C)” value was found to be 1.7.
The same measure, in the same setting: the value for `O=C(O)[C@H]1C[C@@H]1C#Cc1ccc(Cl)cc1` was 1.92; that for `Cc1ccc(C#C[C@H]2C[C@@H]2C(=O)O)cc1` was 1.82.
On the same count and under the same terms, the value for `COc1ccc(C#C[C@H]2C[C@@H]2C(=O)O)cc1` was 1.7.

The species entered for a further assay is Rattus norvegicus. Description: Hypoglycemic activity in rat assessed as change in blood glucose level after 4 hrs. The format is functional. Set-up: concentration or dose not given beside the values.
Details: not given
On to `O=C(C=P(c1ccccc1)(c1ccccc1)c1ccccc1)c1ccc(Cl)c(Cl)c1`, for which the Activity is 2%.
As to `O=C(C=P(c1ccccc1)(c1ccccc1)c1ccccc1)c1ccc(Cl)cc1`, the Activity is on record as -21%.
As to `O=C(C=P(c1ccccc1)(c1ccccc1)c1ccccc1)c1cccc(C(F)(F)F)c1`, the Activity is on record as -22%.
With `O=C(C=P(c1ccccc1)(c1ccccc1)c1ccccc1)c1ccccc1`, the Activity was -24%.
Still for that read-out and setting: the value for `Cc1ccc(C(=O)C=P(c2ccccc2)(c2ccccc2)c2ccccc2)cc1` was -2%; that for `Cc1cccc(C(=O)C=P(c2ccccc2)(c2ccccc2)c2ccccc2)c1` was -30%; that for `COc1cccc(C(=O)C=P(c2ccccc2)(c2ccccc2)c2ccccc2)c1` was -42%.
Same read-out and setting: the value for `O=C(C=P(c1ccccc1)(c1ccccc1)c1ccccc1)c1cccc(Cl)c1` was -42%; that for `COc1ccc(C(=O)C=P(c2ccccc2)(c2ccccc2)c2ccccc2)cc1` was -4%.

For another assay, the species on record is Oryctolagus cuniculus. Nature of the assay: Reversible inhibition of guanine deaminase in rabbit liver at pH 7.4.
Details: not given
`Nc1nc(O)c2ncn(-c3ccc(OCCCc4ccccc4)cc3)c2n1`: the log(1/C) amounted to 7.25.
On the same count and under the same terms, the value for `CCOc1ccc(-n2cnc3c(O)nc(N)nc32)cc1` was 7.01.

The next assay relates to Rattus norvegicus. Description: Antiinflammatory activity in rat pleurisy model assessed as 10X ratio of mean pleural exudate volumes at 1 mmol/kg, po relative to 1 mmol/kg aspirin. The class given is functional.
Details: not given
On to `Nc1cccc(-c2nnn(CCC(=O)O)n2)c1`, for which the Activity_index was 0.3.
In the case of `O=C(O)CCn1nnc(-c2cccc(Br)c2)n1`, the Activity_index is 11.2.
Still for that read-out and setting: in the case of `O=C(O)CCn1nnc(-c2cccc(C(F)(F)F)c2)n1` it was 5.7; in that of `O=C(O)CCn1nnc(-c2ccc(Cl)c(Cl)c2)n1`, 6.2; in that of `COc1ccc(-c2nnn(CCC(=O)O)n2)cc1`, 4.9.
As to `O=C(O)CCn1nnc(-c2cccc(Cl)c2)n1`, the Activity_index is 11.2.
`O=C(O)CCn1nnc(-c2cc(Cl)cc(Cl)c2)n1`: the Activity_index stood at 11.2.
The same measure, in the same setting: the value for `O=C(O)CCn1nnc(-c2ccc(Cl)cc2)n1` was 5.9.
Consider `Cc1cccc(-c2nnn(CCC(=O)O)n2)c1`, for which the Activity_index came to 7.9.
Same read-out and setting: the value for `O=C(O)CCn1nnc(-c2ccccc2)n1` was 8.2.
On to `Cc1ccc(-c2nnn(CCC(=O)O)n2)cc1`, for which the Activity_index was found to be 3.1.
